Laboratory results: PMC9790248, “Effects of CYP3A Inhibition, CYP3A Induction, and Gastric Acid Reduction on the Pharmacokinetics of Ripretinib, a Switch Control KIT Tyrosine Kinase Inhibitor” (Clinical Pharmacology in Drug Development, 2022)
Like-named read-outs stand apart in the source and are kept apart here.

Tests used:
[1] = Stability in human plasma (K2EDTA), bioanalytical validation; type: in vitro ADME; conditions: with or without concomitant medications
Procedure: Following the bioanalytical method validation guidance, the analytical method was validated to verify that the assay was a robust and reliable measurement of ripretinib and DP‐5439 in human plasma with dipotassium ethylenediaminetetraacetic acid (K2EDTA) as the anticoagulant. The linear range of method was 2.00–1000 ng/mL for both ripretinib and DP‐5439. The coefficient of variation (CV%) (precision) for intra‐ and interassay at each quality control (QC) level was ≤15.0% (≤20.0% at the LLOQ QC level: 2 ng/mL for both ripretinib and DP‐5439). The mean % Bias (accuracy) at each QC level was within ±15.0% (±20.0% at the LLOQ QC level) from its respective nominal concentration.

Solubility = type: physicochemical
[2] = Concentration-corrected QT interval analysis; type: in vivo; conditions: across a range of plasma concentration; data on file
Procedure: In the current study, itraconazole was administered as an oral solution on an empty stomach to ensure the highest oral absorption under fasting conditions and minimize gastrointestinal tract irritation during fasting. […] The tolerability of higher exposure is supported by previous safety and PK data.[7], [10] In a phase 1 study of ripretinib in patients with cancer, the maximum tolerated dose was not reached with doses up to ripretinib 200 mg twice daily.[7] Dose escalation to ripretinib 150 mg twice daily was offered to patients in a phase 1 and phase 3 clinical study after radiologic disease progression on 150 mg once daily.[7], [11] […] Steady‐state PK exposure following ripretinib 150 mg twice daily was approximately 2‐fold higher compared with ripretinib 150 mg once daily.[7], [10] […] However, the exposure–safety relationships were relatively shallow, and most AEs were Grades 1 and 2.

[3] = Safety assessment (TEAEs), rifampin study; type: in vivo, human
Procedure: (§1) Participants were confined to the study center from days −1 through 22 for the collection of plasma PK samples and all study procedures. Participants received an oral dose of ripretinib 100 mg on day 1 under fasting conditions; a higher dose of ripretinib was used than in the itraconazole or pantoprazole study due to the potential for decreased ripretinib exposure when coadministered with a strong CYP3A inducer (Figure 1B). On day 8, participants received oral doses of rifampin 600 mg once daily 1 hour before a meal with a full glass of water for 14 consecutive days through day 21. On day 18, participants received a second dose of ripretinib 100 mg administered simultaneously with rifampin 600 mg under fasting conditions. Blood samples for PK analysis were collected at predose and 1, 2, 3, 4, 5, 8, 10, 12, 24, 36, 48, 72, and 96 hours after administration of ripretinib on days 1 and 18. Safety was assessed throughout the study period and with a follow‐up phone call on day 29 or 7 days after discontinuation in the case of early withdrawal.
Relationship to study drug was assessed by the investigator.
Safety data were summarized as n (%).

[4] = Rifampin (strong CYP3A inducer) DDI study, plasma pharmacokinetics; type: in vivo, human; conditions: for AUC(0-t) / AUC(0-inf) / Cmax / half-life / Tmax: both sexes, human, plasma; for AUC(0-t) / AUC(0-inf) / Cmax / half-life: po; for Tmax: read-out: tmax, median (min, max); for Time postdose that mean plasma concentration remained above the LLOQ: LLOQ 2.00 ng/mL
Procedure: All studies were phase 1, fixed‐sequence, open‐label studies in healthy volunteers. One study consisted of two separate cohorts examining DDIs between ripretinib and itraconazole or pantoprazole, respectively; the rifampin study was conducted separately. Studies and cohorts were enrolled independently. Eligible participants were healthy male or female adults between 18 and 55 years of age with a body mass index (BMI) of ≥18.5 and ≤30 kg/m^2. Good health was confirmed by a physician and based on medical evaluation with no significant findings, including medical history, physical examination, laboratory tests, and 12‐lead electrocardiogram (ECG) at screening and day −1. Participants were required to abstain from alcohol, marijuana, grapefruit, Seville oranges, tangelo, star fruit, and grapefruit‐like products 14 days prior to and during the study. Participants with a positive breath test for Helicobacter pylori were excluded from the pantoprazole study.
as §1
Ripretinib and its active metabolite DP‐5439 plasma concentrations were measured using a validated high‐performance liquid chromatography (HPLC) with tandem mass spectrometry (LC‐MS/MS) assay with a lower limit of quantification (LLOQ) of 2.00 ng/mL for both analytes. In this method, the analytes (ripretinib and DP‐5439) and the internal standards (ISs; DCC‐2618‐d5 and DP‐5439‐d5) were released from human plasma samples by protein precipitation. The supernatants were chromatographed using reversed‐phase HPLC with a Betasil® C8 analytical column with deionized water (0.1% formic acid) and 40/60 acetonitrile/acetone (0.1% formic acid) as the mobile phase. Mass spectrometric detection was performed on a triple quadrupole tandem mass spectrometer API 5000 or API 5500 (Applied Biosystems/MDS Sciex, Toronto, Canada) equipped with a turbo ion spray source operated in the positive ionization mode. The source parameters were collision energy 40 eV, collision gas 6 psi, Nebulizer Gas 1, Turbo IonSpray Gas 2, and curtain gas 35 psi. Quantification was obtained by using multiple reaction monitoring mode of the transitions of mass to charge ratio [m/z] 510.3 →417 for DCC‐2618 (ripretinib), m/z 496.2 →403 for DP‐5439, m/z 515.3 →417 for DCC‐2618‐d5, and m/z 501.2 →403 for DP‐5439‐d5.
Plasma concentration–time data were analyzed using noncompartmental methods using Phoenix® WinNonlin® v7.0 (Certara USA Inc., Princeton, New Jersey). Derived PK parameters included area under the concentration–time curve from time 0 to time t (AUC0–t) and area under the concentration–time curve from 0 to infinity (AUC0–∞), maximum observed concentration (Cmax), time of maximum observed concentration (tmax), elimination half‐life (t1/2), apparent systemic clearance, and for DP‐5439, metabolite to parent ratio for AUC0–t, AUC0–∞, and Cmax. […]

[5] = ripretinib 100 mg single oral dose + rifampin 600 mg QD, fasting, healthy participants (N = 21)
[6] = ripretinib 100 mg single oral dose alone, fasting, healthy participants (rifampin study, N = 21)
[7] = ripretinib 100 mg with rifampin 600 mg QD relative to ripretinib alone
[8] = ripretinib 100 mg with rifampin 600 mg QD relative to ripretinib alone, listed as ripretinib

CCn1c(=O)c(-c2cc(NC(=O)Nc3ccccc3)c(F)cc2Br)cc2cnc(NC)cc21 [Ripretinib]
Stability in human plasma at room temperature ([1]; 16 hours at room temperature under normal laboratory lighting): stable | Stability in human plasma, freeze–thaw ([1]; four cycles of freeze (−20 and −70°C) and thaw (room temperature)): stable | Solubility, pH dependence (Solubility): reduced solubility at neutral pH | Concentration-corrected QT interval analysis [2]: did not suggest particular concern | Number of TEAEs assessed as related to study drug ([3]; human, in vivo, 21 days): 78 | Participants with TEAEs assessed as related to study drug per the investigator ([3]; human, in vivo, 21 days): 23 (95.8%) n (%) | Total number of TEAEs ([3]; human, in vivo, 21 days): 94 | Deaths and serious AEs ([3]; rifampin study, N = 24): No deaths or SAEs occurred | AUC(0-t) ([4]; 100 mg, ripretinib 100 mg single oral dose alone, fasting, healthy participants (rifampin study, N = 21), read-out: AUC0–t, arithmetic mean (SD)): 6620 ng·h/mL | AUC(0-t) ([4]; 100 mg, ripretinib 100 mg single oral dose alone, fasting, healthy participants (rifampin study, N = 21), read-out: AUC0–t, geometric mean (CV%)): 5720 ng·h/mL | AUC(0-inf) ([4]; 100 mg, ripretinib 100 mg single oral dose alone, fasting, healthy participants (rifampin study, N = 21), read-out: AUC0–∞, arithmetic mean (SD)): 6220 ng·h/mL | AUC(0-inf) ([4]; 100 mg, ripretinib 100 mg single oral dose alone, fasting, healthy participants (rifampin study, N = 21), read-out: AUC0–∞, geometric mean (CV%)): 5820 ng·h/mL | Cmax ([4]; 100 mg, ripretinib 100 mg single oral dose alone, fasting, healthy participants (rifampin study, N = 21), read-out: Cmax, arithmetic mean (SD)): 392 ng/mL | Cmax ([4]; 100 mg, ripretinib 100 mg single oral dose alone, fasting, healthy participants (rifampin study, N = 21), read-out: Cmax, geometric mean (CV%)): 363 ng/mL | half-life ([4]; 100 mg, ripretinib 100 mg single oral dose alone, fasting, healthy participants (rifampin study, N = 21), read-out: t1/2, arithmetic mean (SD) (converted)): 15 h | half-life ([4]; 100 mg, ripretinib 100 mg single oral dose alone, fasting, healthy participants (rifampin study, N = 21), read-out: t1/2, geometric mean (CV%) (converted)): 15 h | AUC(0-t) ([4]; ripretinib 100 mg single oral dose + rifampin 600 mg QD, fasting, healthy participants (N = 21), read-out: AUC0–t, arithmetic mean (SD)): 2360 ng·h/mL | AUC(0-t) ([4]; ripretinib 100 mg single oral dose + rifampin 600 mg QD, fasting, healthy participants (N = 21), read-out: AUC0–t, geometric mean (CV%)): 2230 ng·h/mL | AUC(0-inf) ([4]; ripretinib 100 mg single oral dose + rifampin 600 mg QD, fasting, healthy participants (N = 21), read-out: AUC0–∞, arithmetic mean (SD)): 2400 ng·h/mL | AUC(0-inf) ([4]; ripretinib 100 mg single oral dose + rifampin 600 mg QD, fasting, healthy participants (N = 21), read-out: AUC0–∞, geometric mean (CV%)): 2270 ng·h/mL | Cmax ([4]; ripretinib 100 mg single oral dose + rifampin 600 mg QD, fasting, healthy participants (N = 21), read-out: Cmax, arithmetic mean (SD)): 321 ng/mL | Cmax ([4]; ripretinib 100 mg single oral dose + rifampin 600 mg QD, fasting, healthy participants (N = 21), read-out: Cmax, geometric mean (CV%)): 299 ng/mL | half-life ([4]; ripretinib 100 mg single oral dose + rifampin 600 mg QD, fasting, healthy participants (N = 21), read-out: t1/2, arithmetic mean (SD) (converted)): 7 h | half-life ([4]; ripretinib 100 mg single oral dose + rifampin 600 mg QD, fasting, healthy participants (N = 21), read-out: t1/2, geometric mean (CV%) (converted)): 7 h | Tmax [4, 5]: 3 h | Tmax [4, 6]: 3 h | Exposure when combined with rifampin, relative to ripretinib alone ([4]; ripretinib 100 mg + rifampin 600 mg QD): less than half | Time postdose that mean plasma concentration remained above the LLOQ ([4]; ripretinib 100 mg alone (rifampin study)): up to 96 hours | CL/F, arithmetic mean (SD) [4, 5]: 47 (16) L/h | CL/F, geometric mean (CV%) [4, 5]: 44 (35) L/h | t1/2, geometric mean (CV%) [4, 5]: 6 (46) h | CL/F, arithmetic mean (SD) [4, 6]: 18 (7) L/h | CL/F, geometric mean (CV%) [4, 6]: 17 (39) L/h | Geometric LS mean ratio of AUC0–t [4, 7]: 39% | Geometric LS mean ratio of AUC0–∞ (90% CI) [4, 7]: 39 (35–44) % | Geometric LS mean ratio of Cmax (90% CI) [4, 7]: 82 (72–94) % | Geometric LS mean ratio of AUC0–∞ (90% CI) [4, 8]: 39% | Geometric LS mean ratio of Cmax (90% CI) [4, 8]: 82% | Time postdose that mean plasma concentration remained above the LLOQ ([4]; ripretinib 100 mg with rifampin): approximately 36 hours
